Source: article PMC8318231, “Rate-of-Kill (RoK) assays to triage large compound sets for Chagas disease drug discovery: Application to GSK Chagas Box” (PLoS Neglected Tropical Diseases, 2021)

Key:
[1] = tested on: T. cruzi intracellular amastigotes in H9c2 cells; assay: Rate-of-Kill (RoK) high-content imaging assay, amastigotes per cell (AM/CELL) and curve descriptors; format: cell-based, Trypanosoma cruzi; set-up: key to ME_24h / ME_48h / ME_72h: % reduction in parasite burden (cidal response); t50pct_MCC50 / t50pct_Cmax: unit not given here; details: for ME_24h: 24h; for ME_48h: 48h; for ME_72h: 72h; for tlag_Cmax / t50pct_Cmax / t50%_Cmax: at Cmax; for ME_24h (%): maximum effect at 24 h; for ME_24h (%) / ME_48h (%) / ME_72h (%): RoK assay; for ME_48h (%): maximum effect at 48 h; for ME_72h (%): maximum effect at 72 h; for ME 24h (maximum effect at 24 hours, intracellular amastigotes): maximum percentage of parasite burden reduction reached by any concentration
Outline: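 H9c2 cardiomyocytes infected with T. cruzi trypomastigotes (MOI 8, 18 h), then compounds tested at 5 μM single shot or 11-point 1/3 dilution from 50 μM. DRAQ5-stained nuclei imaged over a time course. Amastigotes per cell normalised to infected cells at 4 h (0%) and non-infected cells (100%).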

TcCYP51 = details: formerly reported; cited from earlier work
[2] = tested on: T. cruzi Tulahuen trypomastigotes; assay: T. cruzi trypomastigote assay (Cell Titer-Glo viability, ATP luminescence); format: cell-based, Trypanosoma cruzi; details: for Trypomastigotes pIC50 48 hours: 48 hours incubation; for Trypomastigotes pIC50 48 hours / Trypomastigotes pIC50 72 hours: pIC50 = -log10 IC50 in molar units; for Trypomastigotes pIC50 72 hours: 72 hours incubation; for 72 pIC50 (trypomastigotes, raw data of Fig 1D): 72 hours, plotted values, censored values given without sign; for 48 pIC50 / 72 pIC50: trypomastigote assay; for 48 pIC50: 48 h; for 72 pIC50: 72 h
Outline: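 Tulahuen trypomastigotes from infected LLC-MK2 culture supernatants (days 5–8) plated at 5 × 10^4 per well in DMEM/2% FBS with compound at 5 μM single-shot final or in dose response. Viability by CellTiter-Glo ATP luminescence after 10 min at room temperature, normalised to no-cell (100%) and DMSO (0%) controls.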

Structure (SMILES) | ME_24h ([1]; figure 5) | ME_48h ([1]; figure 5) | ME_72h ([1]; figure 5) | MCC50 ([1]; RoK curve descriptor) [µM] | MCCE ([1]; RoK curve descriptor) [µM] | AM/CELL NORM ([1]; Time 4, sheet figure 4 A) | AM/CELL NORM ([1]; Time 24, sheet figure 4 A) | AM/CELL NORM ([1]; Time 48, sheet figure 4 A) | t50pct_Cmax ([1]; figure 5) | tlag_Cmax ([1]; figure 5) | t50pct_MCC50 ([1]; at MCC50, figure 5) | tlag_MCC50 ([1]; at MCC50, figure 5) | MCCE ([1]; figure 5) | ME_24h (%) [1] [%] | ME_48h (%) [1] [%] | ME_72h (%) [1] [%] | ME 24h (maximum effect at 24 hours, intracellular amastigotes) [1] [%] | CYP51 pIC50 (TcCYP51) | Trypomastigotes pIC50 48 hours [2] | Trypomastigotes pIC50 72 hours [2] | other results
Cc1ccc(C)c(OC2CCN(C(=O)C(C)n3ccnc3)CC2)c1 (stereo not drawn) [TCMDC-143481] | -18.0648 | -41.8218 | 55.4241 | 5.6 | 0.6 | -1.4032 | -18.0648 | -41.8218 | 72 | 48 | 72 | 48 | 0.6173 | -18.1 | -41.8 | 55.4 | -18.0648 | 7 | < 4.3 | < 4.3 | AM/CELL NORM ([1]; Time 72, sheet figure 4 A): 1.753; tlag_Cmax [1]: 48.0 h; t50%_MCC50 ([1]; at MCC50): 72.0 h; tlag_MCC50 ([1]; at MCC50): 48.0 h; MCC50 ([1]; figure 5, in µM): 5.556; 72 pIC50 (trypomastigotes, raw data of Fig 1D) [2]: < 4.3; 48 pIC50 ([2]; figure 1A): < 4.3; 72 pIC50 ([2]; figure 1A): < 4.3; 72 pIC50 ([2]; figure 1B): < 4.3
Cc1[nH]c2ccccc2c(=O)c1Cc1c(C)[nH]c2ccccc2c1=O [TCMDC-143490] | 37.5404 | 50.8304 | 51.8782 | 50.0 | 0.01 | 13.7757 | 37.5404 | 50.8304 | 48 | 4 | 48 | 4 | 0.007621 | 37.5 | 50.8 | 51.9 | 37.5404 | < 4 | 5.7 | 4.8 | AM/CELL NORM ([1]; Time 72, sheet figure 4 A): 51.8782; t50%_Cmax [1]: 48.0 h; tlag_Cmax [1]: 4.0 h; t50%_MCC50 ([1]; at MCC50): 48.0 h; tlag_MCC50 ([1]; at MCC50): 4.0 h; MCC50 ([1]; figure 5): 50 µM
CNc1cc(C)nc(C2CN(C(=O)c3n[nH]c4ccccc34)CCO2)c1 (stereo not drawn) [TCMDC-143494] | 32.4456 | 71.1038 | 67.5793 | 50.0 | 1.9 | 7.648 | 27.7451 | 71.1038 | 48 | 4 | 48 | 4 | 1.852 | 32.5 | 71.1 | 67.6 | 32.4456 | < 4 | 5.9 | 5.5 | AM/CELL NORM ([1]; Time 72, sheet figure 4 A): 67.5793; t50%_Cmax [1]: 48.0 h; tlag_Cmax [1]: 4.0 h; t50%_MCC50 ([1]; at MCC50): 48.0 h; tlag_MCC50 ([1]; at MCC50): 4.0 h; MCC50 ([1]; figure 5): 50 µM
Cc1nccn1C1CCCN(C(=O)c2cc3c(F)cccc3s2)C1 (stereo not drawn) [TCMDC-143498] | 32.6582 | 54.1455 | 68.2465 | 4.6 | 1.9 | – | – | – | 48 | 8 | 72 | 33.6 | 1.852 | 32.7 | 54.2 | 68.3 | 52.5921 | 4.3 | 4.7 | 4.7 | AM/CELL NORM ([1]; Time 4, figure 4 A): 21.9505; AM/CELL NORM ([1]; Time 24, figure 4 A): 50.5271; AM/CELL NORM ([1]; Time 48, figure 4 A): 69.4926; AM/CELL NORM ([1]; Time 72, figure 4 A): 61.0854; t50%_Cmax [1]: 48.0 h; tlag_Cmax [1]: 8.0 h; t50%_MCC50 ([1]; at MCC50): 72.0 h; tlag_MCC50 ([1]; at MCC50): 24.0 h; MCC50 ([1]; figure 5, in µM): 13.7037; 72 pIC50 (trypomastigotes, raw data of Fig 1D) [2]: 4.7; 48 pIC50 ([2]; figure 1A): 4.7; 72 pIC50 ([2]; figure 1A): 4.7; 72 pIC50 ([2]; figure 1B): 4.7
Cc1cc2cncn2c(C2CCCCN2C(=O)c2cccs2)n1 (stereo not drawn) [TCMDC-143500] | -103.212 | -13.304 | 53.284 | 16.7 | 0.2 | 8.792 | -103.212 | -13.304 | 72 | 24 | 72 | 24 | 0.2058 | -103.2 | -13.3 | 53.3 | -103.212 | 7 | < 4.3 | < 4.3 | AM/CELL NORM ([1]; Time 72, sheet figure 4 A): 50.5477; t50%_Cmax [1]: 72.0 h; tlag_Cmax [1]: 24.0 h; t50%_MCC50 ([1]; at MCC50): 72.0 h; tlag_MCC50 ([1]; at MCC50): 24.0 h; MCC50 ([1]; figure 5, in µM): 16.6667; 72 pIC50 (trypomastigotes, raw data of Fig 1D) [2]: < 4.3; 48 pIC50 ([2]; figure 1A): < 4.3; 72 pIC50 ([2]; figure 1A): < 4.3; 72 pIC50 ([2]; figure 1B): < 4.3
Cn1cncc1CN1CCC2(CC1)COC(Cc1ccccc1)C2 (stereo not drawn) [TCMDC-143502] | -3.518 | 29.7799 | 64.8887 | 5.6 | 1.9 | 12.5806 | -3.518 | -12.3342 | 72 | 48 | 72 | 24 | 1.852 | -3.5 | 29.8 | 64.9 | -3.518 | 6 | < 4.3 | < 4.3 | AM/CELL NORM ([1]; Time 72, sheet figure 4 A): 16.2947; tlag_Cmax [1]: 48.0 h; t50%_MCC50 ([1]; at MCC50): 72.0 h; tlag_MCC50 ([1]; at MCC50): 24.0 h; MCC50 ([1]; figure 5, in µM): 5.556; 72 pIC50 (trypomastigotes, raw data of Fig 1D) [2]: < 4.3; 48 pIC50 ([2]; figure 1A): < 4.3; 72 pIC50 ([2]; figure 1A): < 4.3; 72 pIC50 ([2]; figure 1B): < 4.3
CN(Cc1ccc(C(N)=O)cc1)C(c1ccc(F)cc1)c1cccnc1 (stereo not drawn) [TCMDC-143504] | -95.1621 | -135.708 | 0.6882 | – | 0.6 | 2.577 | -143.385 | -163.001 | 72 | 48 | 72 | 72 | 0.6173 | -95.2 | -135.7 | 0.7 | -95.1621 | 7 | < 4.3 | < 4.3 | AM/CELL NORM ([1]; Time 72, sheet figure 4 A): -44.3312; MCC50 ([1]; figure 5): 50 µM; 72 pIC50 (trypomastigotes, raw data of Fig 1D) [2]: < 4.3; 48 pIC50 ([2]; figure 1A): < 4.3; 72 pIC50 ([2]; figure 1A): < 4.3; 72 pIC50 ([2]; figure 1B): < 4.3
O=C(C1CCCCC1)N1CCN(c2nnc(-c3ccccc3)c3ccccc23)CC1 [TCMDC-143511] | -40.3218 | 29.1145 | 87.9479 | 5.6 | 1.9 | -0.05415 | -40.3218 | 2.791 | 72 | 24 | 72 | 24 | 1.852 | -40.3 | 29.1 | 88.0 | -40.3218 | < 4 | < 4.3 | < 4.3 | AM/CELL NORM ([1]; Time 72, sheet figure 4 A): 87.9479; t50%_Cmax [1]: 72.0 h; tlag_Cmax [1]: 24.0 h; t50%_MCC50 ([1]; at MCC50): 72.0 h; tlag_MCC50 ([1]; at MCC50): 24.0 h; MCC50 ([1]; figure 5, in µM): 5.556; 72 pIC50 (trypomastigotes, raw data of Fig 1D) [2]: < 4.3; 48 pIC50 ([2]; figure 1A): < 4.3; 72 pIC50 ([2]; figure 1A): < 4.3; 72 pIC50 ([2]; figure 1B): < 4.3
